Experimental data taken from US9295732B2, “Conjugated TLR7 and/or TLR8 and TLR2 polycationic agonists” (CAYLA, priority 2013, dated 2016).
Values joined by “and” are separate entries in the source; they are usually repeats but may differ in a detail not shown here. Equal values may be shown once.

Key:
[1] = target: T1, human TLR7 (Homo sapiens, UniProt Q9NYK1); assay: HEK-Blue hTLR7 NF-κB/AP-1 SEAP reporter assay; type: cell-based; details: HEK-Blue hTLR7 cells, 10 μg/mL to 10 pg/ml, 24 hours, OD at 655 nm, FIG. 1
T1 construct: host or cells: HEK293 (HEK-Blue™ hTLR7)
T1 sequence (Q9NYK1 27-1049): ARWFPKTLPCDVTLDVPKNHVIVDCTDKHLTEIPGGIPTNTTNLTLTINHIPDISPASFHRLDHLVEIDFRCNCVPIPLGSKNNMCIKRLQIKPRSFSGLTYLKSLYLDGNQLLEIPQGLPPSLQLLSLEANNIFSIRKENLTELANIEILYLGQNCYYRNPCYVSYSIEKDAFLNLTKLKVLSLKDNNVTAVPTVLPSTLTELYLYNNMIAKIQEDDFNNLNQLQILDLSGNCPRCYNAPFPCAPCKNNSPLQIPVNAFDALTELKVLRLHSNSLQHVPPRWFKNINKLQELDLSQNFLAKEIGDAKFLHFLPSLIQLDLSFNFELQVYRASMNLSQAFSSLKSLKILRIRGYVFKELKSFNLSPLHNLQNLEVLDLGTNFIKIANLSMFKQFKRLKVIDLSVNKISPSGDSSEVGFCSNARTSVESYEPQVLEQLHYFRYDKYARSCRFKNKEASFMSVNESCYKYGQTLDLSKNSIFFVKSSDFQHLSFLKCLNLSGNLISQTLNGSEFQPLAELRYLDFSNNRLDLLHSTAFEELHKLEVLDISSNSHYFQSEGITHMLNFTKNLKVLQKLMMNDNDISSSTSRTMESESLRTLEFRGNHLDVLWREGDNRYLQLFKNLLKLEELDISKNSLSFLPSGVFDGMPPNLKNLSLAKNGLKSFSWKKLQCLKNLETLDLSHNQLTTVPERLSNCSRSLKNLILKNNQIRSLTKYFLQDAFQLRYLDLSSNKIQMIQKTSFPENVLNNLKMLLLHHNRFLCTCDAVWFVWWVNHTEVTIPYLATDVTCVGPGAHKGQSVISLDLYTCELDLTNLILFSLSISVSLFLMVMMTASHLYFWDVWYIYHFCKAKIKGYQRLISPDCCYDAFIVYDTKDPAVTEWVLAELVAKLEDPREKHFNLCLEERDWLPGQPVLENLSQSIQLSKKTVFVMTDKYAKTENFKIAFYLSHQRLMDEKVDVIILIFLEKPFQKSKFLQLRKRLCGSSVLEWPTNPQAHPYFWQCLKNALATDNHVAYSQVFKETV
Description: (§1) Cell-based assays were carried out using TLR7 and TLR2 reporter cell lines (InvivoGen). The reporter cell lines are engineered HEK293 cells, a human embryonic kidney cell line (ATCC, CRL-1573) that stably express either murine TLR7 (HEK-Blue™ mTLR7) or human TLR7 (HEK-Blue™ hTLR7) or human TLR2 (HEK-Blue™ hTLR2) with an NF-κB-inducible secreted embryonic alkaline phosphatase (SEAP) as the reporter gene. The SEAP reporter gene is under the control of the NF-κB and AP-1-inducible promoter, which, upon treatment with a corresponding TLR ligand and activation of NF-κB and AP-1, induces the production of SEAP. Detection of SEAP is measured following culturing cells in HEK-Blue™ Detection media (InvivoGen). HEK-Blue™ Detection contains a SEAP substrate that when hydrolysed by SEAP produces a colorimetric change allowing for detection of SEAP as the protein is secreted. […] These assays were carried out using RAW-Blue™ Cells (InvivoGen), derived from RAW 264.7 mouse leukemic monocyte macrophage cell line (ATCC, CRL 2278) stably overexpressing a NF-B/AP-1 inducible SEAP reporter constructs.
(§2) To perform the assay, cells were seeded on 96 well microliter plates at 50,000 or 100,000 cells per well for HEK-Blue™ Cells and RAW-Blue™ Cells respectively, and cultured at 37° C. in the presence of the conjugated compounds The TLR7-TLR2 polyamine molecules were prepared as follows: First, stock solutions of the conjugated compounds of the invention were prepared in ethanol or water to a concentration of 10 mg/ml.
(§3) The working dilutions of the conjugated TLR7-TLR2 polyamine agonists made up in water or PBS were directly added to the reporter cell lines at a final concentration ranging from 10 μg/mL to 10 pg/ml and incubated at 37° C. for 24 hours. After 24 hours of incubation, the effect on reporter gene activity was determined by reading the OD at 655 nm using iMark™ Microplate Reader (BIO-RAD).

[2] = target: T2, murine TLR7 (Mus musculus, UniProt P58681); assay: HEK-Blue mTLR7 NF-κB/AP-1 SEAP reporter assay; type: cell-based; details: HEK-Blue mTLR7 cells, 10 μg/mL to 10 pg/ml, 24 hours, OD at 655 nm, FIG. 2
T2 construct: host or cells: HEK293 (HEK-Blue™ mTLR7)
T2 sequence (P58681 27-1050): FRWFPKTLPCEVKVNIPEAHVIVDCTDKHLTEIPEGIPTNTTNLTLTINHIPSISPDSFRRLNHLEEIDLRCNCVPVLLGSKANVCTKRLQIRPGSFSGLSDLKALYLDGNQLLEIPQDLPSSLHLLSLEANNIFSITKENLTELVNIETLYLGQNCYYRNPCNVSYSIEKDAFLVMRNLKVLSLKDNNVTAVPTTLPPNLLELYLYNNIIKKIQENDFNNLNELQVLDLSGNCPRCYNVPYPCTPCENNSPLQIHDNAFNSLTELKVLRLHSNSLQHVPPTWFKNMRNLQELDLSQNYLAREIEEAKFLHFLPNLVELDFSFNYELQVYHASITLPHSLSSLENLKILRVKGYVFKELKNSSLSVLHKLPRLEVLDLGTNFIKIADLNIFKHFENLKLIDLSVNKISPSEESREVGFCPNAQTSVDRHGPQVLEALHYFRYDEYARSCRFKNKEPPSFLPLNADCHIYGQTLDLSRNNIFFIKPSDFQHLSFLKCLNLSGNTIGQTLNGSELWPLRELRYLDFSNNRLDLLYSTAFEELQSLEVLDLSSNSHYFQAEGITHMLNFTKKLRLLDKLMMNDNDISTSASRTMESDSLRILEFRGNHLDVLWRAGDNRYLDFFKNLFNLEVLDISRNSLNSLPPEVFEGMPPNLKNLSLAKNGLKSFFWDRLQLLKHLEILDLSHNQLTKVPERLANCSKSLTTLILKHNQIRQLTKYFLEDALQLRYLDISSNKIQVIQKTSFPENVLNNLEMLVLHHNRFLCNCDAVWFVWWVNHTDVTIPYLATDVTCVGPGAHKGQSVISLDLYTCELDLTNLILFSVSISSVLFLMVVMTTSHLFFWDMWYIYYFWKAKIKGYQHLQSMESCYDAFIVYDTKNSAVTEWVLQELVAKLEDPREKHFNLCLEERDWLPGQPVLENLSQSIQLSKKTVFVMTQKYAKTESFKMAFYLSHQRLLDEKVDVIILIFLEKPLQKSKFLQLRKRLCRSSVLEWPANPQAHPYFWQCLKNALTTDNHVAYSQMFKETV
Description: as §1, §2, §3

[3] = target: T3, human TLR2 (Homo sapiens, UniProt O60603); assay: HEK-Blue hTLR2 NF-κB/AP-1 SEAP reporter assay; type: cell-based; details: HEK-Blue hTLR2 cells, 10 μg/mL to 10 pg/ml, 24 hours, OD at 655 nm, FIG. 3
T3 construct: host or cells: HEK293 (HEK-Blue™ hTLR2)
Description: as §1, §2, §3

[4] = system: endogenous TLR2 and TLR7 in RAW-Blue™ Cells; assay: RAW-Blue Cells NF-κB/AP-1 SEAP reporter assay; type: cell-based, mouse; details: 24 hours, OD at 655 nm, FIG. 4
Description: as §1, §2, §3

[5] = system: plasmid DNA (pDNA); assay: Gel shift (mobility shift) assay of pDNA complexation; type: binding; details: pDNA:molecule ratio 3:24 (w:w), 0.8% agarose gel, compared to pDNA alone
Description: Then, 10 μl of pDNA:TLR7-TLR2 polyamine molecule complexes and 2 μl of charge buffer were mixed and loaded into wells of a 0.8% agarose gel. Samples were migrated through the gel in TAE buffer under 135 voltage for 21 mins and the migration of the pDNA was visualized following ethidium bromide staining under UV light. The ability of TLR7-TLR2 polyamine molecules to complex/associate with the pDNA was identified by partial or complete retardation of the pDNA migration toward the anode in the gel compared to pDNA alone. […] Ethidium bromide intercalation of pDNA in complex with molecules allowed visualization of complexed pDNA as a smear in the wells of the gel.

[6] = Nanoparticle (lipoplex) size by dynamic light scattering; details: 25° C., triplicate; for Mean Diameter: complexes with pDNA 3:24 (w:w), dynamic light scattering; for PDI: polydispersity index of complexes with pDNA 3:24 (w:w);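 as to all read-outs here: lipoplexes of TLR7-TLR2 polyamine conjugates with plasmid DNA, formed over 30 min at room temperature in serum-free medium or 5% glucose, diameter in nm, PDI dimensionless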

T3 sequence (O60603 21-784): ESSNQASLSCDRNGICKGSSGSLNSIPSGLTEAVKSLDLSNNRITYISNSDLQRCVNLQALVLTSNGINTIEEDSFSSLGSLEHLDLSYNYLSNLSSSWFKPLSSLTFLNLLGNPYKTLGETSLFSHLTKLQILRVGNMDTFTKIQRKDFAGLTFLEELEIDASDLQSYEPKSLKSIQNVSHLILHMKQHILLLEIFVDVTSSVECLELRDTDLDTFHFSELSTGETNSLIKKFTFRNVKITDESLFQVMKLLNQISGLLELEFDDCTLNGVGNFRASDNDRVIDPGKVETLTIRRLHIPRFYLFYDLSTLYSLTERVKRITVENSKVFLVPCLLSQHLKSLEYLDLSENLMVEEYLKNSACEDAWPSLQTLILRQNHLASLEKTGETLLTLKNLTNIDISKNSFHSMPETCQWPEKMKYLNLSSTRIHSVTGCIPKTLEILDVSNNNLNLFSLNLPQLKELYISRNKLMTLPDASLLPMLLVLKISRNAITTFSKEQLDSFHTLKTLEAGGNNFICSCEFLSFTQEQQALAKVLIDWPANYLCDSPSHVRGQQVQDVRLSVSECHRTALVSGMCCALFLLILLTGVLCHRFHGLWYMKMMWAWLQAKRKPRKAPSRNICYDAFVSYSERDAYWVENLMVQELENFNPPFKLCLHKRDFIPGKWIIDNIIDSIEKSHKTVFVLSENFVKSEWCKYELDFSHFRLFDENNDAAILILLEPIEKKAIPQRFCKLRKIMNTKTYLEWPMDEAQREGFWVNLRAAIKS

CCCCCCCCCCCCCCCC(=O)OCC(CSC[C@H](N)C(=O)N[C@@H](CCCCNC(=O)CNC(=O)c1ccc(Cn2c(O)nc3c(N)nc(NCCCC)nc32)cc1)C(=O)NCCCNCCCCNCCCN)OC(=O)CCCCCCCCCCCCCCC (stereo partly drawn) [CL475, (6R,9S)-6,23-diamino-9-(4-(2-(4-((6-amino-2-(butylamino)-8-hydroxy-9H-purin-9-yl)methyl)benzamido)acetamido)butyl)-7,10-dioxo-4-thia-8,11,15,20-tetraazatrico sane-1,2-diyl dipalmitate]
ability to activate hTLR7 [1]: activate hTLR7 | ability to activate mTLR7 [2]: activate mTLR7 | ability to activate hTLR2 [3]: activate hTLR2 | ability to activate endogenous TLR2 and TLR7 in RAW-Blue Cells [4]: activate endogenous TLR2 and TLR7 | ability to complex pDNA (retardation of pDNA migration in agarose gel) [5]: inability to migrate through an agarose gel | Mean Diameter [6]: 145.9 nm and 155.8 nm and 153.5 nm | PDI [6]: 0.193 and 0.176 and 0.158

CCCCCCCCCCCCCCCC(=O)OCC(CSC[C@H](N)C(=O)NCCCC[C@H](NC(=O)c1ccc(Cn2c(O)nc3c(N)nc(NCCCC)nc32)cc1)C(=O)NCCCNCCCCNCCCN)OC(=O)CCCCCCCCCCCCCCC (stereo partly drawn) [CL486, (6R,13S)-6,27-diamino-13-(4-((6-amino-2-(butylamino)-8-hydroxy-9H-purin-9-yl)methyl)benzamido)-7,14-dioxo-4-thia-8,15,19,24-tetraazaheptacosane-1,2-diyl dipalmitate]
ability to activate hTLR7 [1]: activate hTLR7 | ability to activate mTLR7 [2]: activate mTLR7 | ability to activate hTLR2 [3]: activate hTLR2 | ability to activate endogenous TLR2 and TLR7 in RAW-Blue Cells [4]: activate endogenous TLR2 and TLR7 | ability to complex pDNA (retardation of pDNA migration in agarose gel) [5]: inability to migrate through an agarose gel | Mean Diameter [6]: 202.0 nm and 209.2 nm and 179.7 nm | PDI [6]: 0.234 and 0.236 and 0.232

CCCCCCCCCCCCCCCC(=O)OCC(CSC[C@H](N)C(=O)NCCCNCCCCNCCCN)OC(=O)CCCCCCCCCCCCCCC (some centres unmarked) [CL419]
Mean Diameter [6]: 147.0 nm and 148.5 nm and 156.7 nm | PDI [6]: 0.185 and 0.193 and 0.210

CCCCCCCCCCCCCCCC(=O)N[C@@H](CSCC(COC(=O)CCCCCCCCCCCCCCC)OC(=O)CCCCCCCCCCCCCCC)C(=O)N[C@@H](CO)C(=O)N[C@@H](CCCCNC(=O)c1ccc(Cn2c(O)nc3c(N)nc(NCCCC)nc32)cc1)C(=O)N[C@@H](CCCCN)C(=O)N[C@@H](CCCCN)C(=O)N[C@@H](CCCCN)C(=O)O (stereo partly drawn) [CL537, (2S,5S,8S,11S,14S,17R)-11-(4-(4-((6-amino-2-(butylamino)-8-hydroxy-9H-purin-9-yl)methyl)benzamido)butyl)-2,5,8-tris(4-aminobutyl)-14-(hydroxymethyl)-4,7,10,13,16,24-hexaoxo-17-palmitamido-21-(palmitoyloxy)-23-oxa-19-thia-3,6,9,12,15-pentaazanonatria contan-1-oic acid]
ability to activate hTLR7 [1]: activate hTLR7 | ability to activate mTLR7 [2]: activate mTLR7 | ability to activate hTLR2 [3]: activate hTLR2 | ability to activate endogenous TLR2 and TLR7 in RAW-Blue Cells [4]: activate endogenous TLR2 and TLR7 | ability to complex pDNA (retardation of pDNA migration in agarose gel) [5]: inability to migrate through an agarose gel

CCCCCCCCCCCCCCCC(=O)N[C@@H](CSCC(COC(=O)CCCCCCCCCCCCCCC)OC(=O)CCCCCCCCCCCCCCC)C(=O)N[C@@H](CO)C(=O)N[C@@H](CCCCN)C(=O)N[C@@H](CCCCN)C(=O)N[C@@H](CCCCNC(=O)c1ccc(Cn2c(O)nc3c(N)nc(NCCCC)nc32)cc1)C(=O)N[C@@H](CCCCN)C(=O)O (stereo partly drawn) [CL535, (2S,5S,8S,11S,14S,17R)-5-(4-(4-((6-amino-2-(butylamino)-8-hydroxy-9H-purin-9-yl)methyl)benzamido)butyl)-2,8,11-tris(4-aminobutyl)-14-(hydroxymethyl)-4,7,10,13,16,24-hexaoxo-17-palmitamido-21-(palmitoyloxy)-23-oxa-19-thia-3,6,9,12,15-pentaazanonatriacontan-1-oic acid]
ability to activate hTLR7 [1]: activate hTLR7 | ability to activate mTLR7 [2]: activate mTLR7 | ability to activate hTLR2 [3]: activate hTLR2 | ability to activate endogenous TLR2 and TLR7 in RAW-Blue Cells [4]: activate endogenous TLR2 and TLR7 | ability to complex pDNA (retardation of pDNA migration in agarose gel) [5]: inability to migrate through an agarose gel
